Measurements taken from US10376520B2, “Methods for the treatment of cardiovascular disorders” (Galapagos NV, priority 2015, dated 2019).

System: RA patients
Assay: Atherogenic index, Study 2 (RA patients, monotherapy)
Assay type: in vivo, human
Description: As used herein, the term ‘atherogenic index’ refers to
Double-blind, placebo-controlled, monotherapy study in subjects with moderately to severely active RA who have an inadequate response to methotrexate (MTX) (oral or parenteral).
Twelve weeks of treatment with Compound 1 (dosed as a [Compound 1:HCl:3H2O]) at 50 mg, 100 mg, or 200 mg q.d.; or placebo. At Week 12, all subjects on placebo and the subjects on the 50 mg dose who have not achieved 20% improvement in swollen joint count (SJC66) and tender joint count (TJC68) will be assigned to 100 mg q.d. in a blinded fashion and will continue treatment until Week 24. Subjects in the other groups will maintain their randomized treatment until Week 24.
The atherogenic index has been identified to be a good predictor of cardiovascular disorders risks and is calculated as follows: […]

[1] = Placebo switching to 100 mg q.d., week 16
[2] = Placebo switching to 100 mg q.d., week 20
[3] = Placebo switching to 100 mg q.d., week 24

For `O=C(Nc1nc2cccc(-c3ccc(CN4CCS(=O)(=O)CC4)cc3)n2n1)C1CC1` [Compound 1, cyclopropanecarboxylic acid {5-[4-(1,1-dioxo-thiomorpholin-4-ylmethyl)-phenyl]-[1,2,4]triazolo[1,5-a]pyridin-2yl}-amide], the “Atherogenic index Median CFB - 12 weeks results” value (100 mg q.d., week 4) was -0.10 mmol/L, the “Atherogenic index Median CFB - 24 weeks results” value (100 mg q.d., week 4) was -0.10 mmol/L and the “Atherogenic index Median percentage CFB - 12 weeks results” value (100 mg q.d., week 4) was −3.65%. For the same molecule, the “Atherogenic index Median percentage CFB - 24 weeks results” value (100 mg q.d., week 4) was −3.65%, the “Atherogenic index Mean CFB - 12 weeks results” value (shortened to “Atherogenic index Mean CFB”) (100 mg q.d., week 8) was -0.13 mmol/L and the “Atherogenic index Mean percentage CFB - 12 weeks results” value (100 mg q.d., week 8) was −3.37%. The “Atherogenic index Mean percentage CFB - 24 weeks results” value (100 mg q.d., week 8) was −3.37%, the “Atherogenic index Median CFB - 12 weeks results” value (100 mg q.d., week 8) was -0.10 mmol/L and the “Atherogenic index Median CFB - 24 weeks results” value (100 mg q.d., week 8) was -0.10 mmol/L. The “Atherogenic index Median percentage CFB - 24 weeks results” value (100 mg q.d., week 8) was −1.45%, the “Atherogenic index Mean CFB” value (100 mg q.d., week 12) was -0.07 mmol/L and the “Atherogenic index Mean percentage CFB - 24 weeks results” value (100 mg q.d., week 12) was −1.37%. For the same molecule, the “Atherogenic index Median CFB - 12 weeks results” value (100 mg q.d., week 12) was -0.10 mmol/L, the “Atherogenic index Median CFB - 24 weeks results” value (100 mg q.d., week 12) was -0.10 mmol/L and the “Atherogenic index Median percentage CFB - 12 weeks results” value (100 mg q.d., week 12) was −2.78%. For the same molecule, the “Atherogenic index Median percentage CFB - 24 weeks results” value (100 mg q.d., week 12) was −2.78%, the “Atherogenic index Mean percentage CFB - 24 weeks results” value (100 mg q.d., week 16) was −4.43% and the “Atherogenic index Median CFB - 24 weeks results” value (100 mg q.d., week 16) was -0.20 mmol/L. The “Atherogenic index Median percentage CFB - 24 weeks results” value (100 mg q.d., week 16) was −4.76%, the “Atherogenic index Mean percentage CFB - 24 weeks results” value (100 mg q.d., week 20) was −2.50% and the “Atherogenic index Median CFB - 24 weeks results” value (100 mg q.d., week 20) was 0.00 mmol/L. The “Atherogenic index Median percentage CFB - 24 weeks results” value (100 mg q.d., week 20) was 0.00%, the “Atherogenic index Mean percentage CFB - 24 weeks results” value (100 mg q.d., week 24) was −0.41% and the “Atherogenic index Median CFB - 24 weeks results” value (100 mg q.d., week 24) was 0.00 mmol/L. For the same molecule, the “Atherogenic index Median percentage CFB - 24 weeks results” value (100 mg q.d., week 24) was 0.00%, the “Atherogenic index Mean CFB” value (200 mg q.d., week 1) was 0.15 mmol/L and the “Atherogenic index Mean percentage CFB - 12 weeks results” value (200 mg q.d., week 1) was 4.43%. For the same molecule, the “Atherogenic index Mean percentage CFB - 24 weeks results” value (200 mg q.d., week 1) was 4.43%, the “Atherogenic index Median CFB - 12 weeks results” value (200 mg q.d., week 1) was 0.10 mmol/L and the “Atherogenic index Median CFB - 24 weeks results” value (200 mg q.d., week 1) was 0.10 mmol/L. The “Atherogenic index Median percentage CFB - 12 weeks results” value (200 mg q.d., week 1) was 1.96%, the “Atherogenic index Median percentage CFB - 24 weeks results” value (200 mg q.d., week 1) was 1.96% and the “Atherogenic index Mean CFB” value (200 mg q.d., week 2) was -0.09 mmol/L. For the same molecule, the “Atherogenic index Mean percentage CFB - 12 weeks results” value (200 mg q.d., week 2) was −2.14%, the “Atherogenic index Mean percentage CFB - 24 weeks results” value (200 mg q.d., week 2) was −2.14% and the “Atherogenic index Median CFB - 12 weeks results” value (200 mg q.d., week 2) was 0.00 mmol/L. The “Atherogenic index Median CFB - 24 weeks results” value (200 mg q.d., week 2) was 0.00 mmol/L, the “Atherogenic index Median percentage CFB - 12 weeks results” value (200 mg q.d., week 2) was 0.00% and the “Atherogenic index Median percentage CFB - 24 weeks results” value (200 mg q.d., week 2) was 0.00%. The “Atherogenic index Mean CFB” value (200 mg q.d., week 4) was -0.18 mmol/L, the “Atherogenic index Mean percentage CFB - 12 weeks results” value (200 mg q.d., week 4) was −3.89% and the “Atherogenic index Mean percentage CFB - 24 weeks results” value (200 mg q.d., week 4) was −3.89%. For the same molecule, the “Atherogenic index Median CFB - 12 weeks results” value (200 mg q.d., week 4) was -0.10 mmol/L, the “Atherogenic index Median CFB - 24 weeks results” value (200 mg q.d., week 4) was -0.10 mmol/L and the “Atherogenic index Median percentage CFB - 12 weeks results” value (200 mg q.d., week 4) was −3.65%. For the same molecule, the “Atherogenic index Median percentage CFB - 24 weeks results” value (200 mg q.d., week 4) was −3.65%, the “Atherogenic index Mean CFB” value (200 mg q.d., week 8) was -0.16 mmol/L and the “Atherogenic index Mean percentage CFB - 12 weeks results” value (200 mg q.d., week 8) was −3.33%. The “Atherogenic index Mean percentage CFB - 24 weeks results” value (200 mg q.d., week 8) was −3.33%, the “Atherogenic index Median CFB - 12 weeks results” value (200 mg q.d., week 8) was -0.10 mmol/L and the “Atherogenic index Median CFB - 24 weeks results” value (200 mg q.d., week 8) was -0.10 mmol/L. The “Atherogenic index Median percentage CFB - 12 weeks results” value (200 mg q.d., week 8) was −3.33%, the “Atherogenic index Median percentage CFB - 24 weeks results” value (200 mg q.d., week 8) was −3.33% and the “Atherogenic index Mean CFB” value (200 mg q.d., week 12) was -0.04 mmol/L. The “Atherogenic index Mean percentage CFB - 12 weeks results” value (200 mg q.d., week 12) was 0.54%, the “Atherogenic index Mean percentage CFB - 24 weeks results” value (200 mg q.d., week 12) was 0.54% and the “Atherogenic index Median CFB - 12 weeks results” value (200 mg q.d., week 12) was 0.00 mmol/L. The “Atherogenic index Median CFB - 24 weeks results” value (200 mg q.d., week 12) was 0.00 mmol/L, the “Atherogenic index Median percentage CFB - 12 weeks results” value (200 mg q.d., week 12) was 0.00% and the “Atherogenic index Median percentage CFB - 24 weeks results” value (200 mg q.d., week 12) was 0.00%. The “Atherogenic index Mean percentage CFB - 24 weeks results” value (200 mg q.d., week 16) was 0.42%, the “Atherogenic index Median CFB - 24 weeks results” value (200 mg q.d., week 16) was 0.00 mmol/L and the “Atherogenic index Median percentage CFB - 24 weeks results” value (200 mg q.d., week 16) was 0.00%. For the same molecule, the “Atherogenic index Mean percentage CFB - 24 weeks results” value (200 mg q.d., week 20) was −1.40%, the “Atherogenic index Median CFB - 24 weeks results” value (200 mg q.d., week 20) was -0.20 mmol/L and the “Atherogenic index Median percentage CFB - 24 weeks results” value (200 mg q.d., week 20) was −3.77%. For the same molecule, the “Atherogenic index Mean percentage CFB - 24 weeks results” value (200 mg q.d., week 24) was 0.92%, the “Atherogenic index Median CFB - 24 weeks results” value (200 mg q.d., week 24) was -0.10 mmol/L and the “Atherogenic index Median percentage CFB - 24 weeks results” value (200 mg q.d., week 24) was −2.58%. The “Atherogenic index Mean percentage CFB - 24 weeks results” value [1] was −6.56%, the “Atherogenic index Median CFB - 24 weeks results” value [1] was -0.20 mmol/L and the “Atherogenic index Median percentage CFB - 24 weeks results” value [1] was −5.40%. The “Atherogenic index Mean percentage CFB - 24 weeks results” value [2] was −5.24%, the “Atherogenic index Median CFB - 24 weeks results” value [2] was -0.30 mmol/L and the “Atherogenic index Median percentage CFB - 24 weeks results” value [2] was −7.87%. For the same molecule, the “Atherogenic index Mean percentage CFB - 24 weeks results” value [3] was −3.22%, the “Atherogenic index Median CFB - 24 weeks results” value [3] was -0.10 mmol/L and the “Atherogenic index Median percentage CFB - 24 weeks results” value [3] was −3.57%.
